Source: patent US20260216344A1, “ALC1 Inhibitors and Synergy with PARPi” (Eisbach Bio GmbH, priority 2020, published 2026)
“Also recorded” adds a separate entry of the source.

Test system: PARP2
Experiment: live-cell PARP-2 trapping assay (GFP-PARP2 at laser micro-irradiation sites)
Format: cell-based, human
Settings: U2OS cells transfected with GFP-PARP2; veliparib 10 μM, talazoparib 100 nM; images 1 and 15 minutes after irradiation
Protocol: U2OS cells were seeded onto 4-well Nunc Lab-Tek chambers (Thermo Fisher Scientific) in normal DMEM. Cells were cultured over night at 37° C. and transfected with a GFP-tagged PARP2 plasmid using Lipofectamine. 24 h after transfection, the cells were imaged using the Zeiss AxioObserver Z1 confocal spinning-disk microscope equipped with a sCMOS ORCA Flash 4.0 camera (Hamamatsu). Live-cell imaging experiments were performed with C-Apo 63× water immersion objective lens. During this time, the cells were maintained in Leibovitz's L-15 media (Gibco), supplemented with 10% FBS, at 37° C. in the absence of CO2. […] DNA damage was induced along a line of 88 pixels that is exposed for 400 msec with 20% laser power of a 355 nm laser operated through a single-point scanning head (UGA-42 firefly, Rapp OptoElectronics).
The accumulation of fluorophore-tagged proteins at laser micro-irradiation sites was followed for 15-30 minutes. […] The accumulation of fluorophore-tagged proteins at micro-irradiation sites was quantified using a custom-made macro in Fiji/ImageJ. The damage region of interest was selected, the mean fluorescent intensity of the nucleus was determined, and the background signal was subtracted. The recruitment was calculated via the following formula: (damage region (t)−background signal (t))/(nucleus intensity (t)−background (t))

For Cn1ncnc1[C@H]1c2n[nH]c(=O)c3cc(F)cc(c23)N[C@@H]1c1ccc(F)cc1 [talazoparib], the “recruitment / retention of GFP-PARP2 at laser micro-irradiation damage sites” value was “enhanced retention of GFP-tagged PARP2 at induced DNA lesions; also recorded: enhanced retention of PARP2 at induced damage sites”.
In the case of C[C@]1(c2nc3c(C(N)=O)cccc3[nH]2)CCCN1 [veliparib], the “recruitment / retention of GFP-PARP2 at laser micro-irradiation damage sites” value is reported as “overall less PARP2 recruitment to the DNA lesions; also recorded: less recruitment of PARP2 to the damage site”.
